Experiments:
[1] = Cytotoxicity against human Huh-7 cells assessed as reduction in cell viability incubated for 46 hrs by AlamarBlue dye based fluorescence analysis; format: toxicity
[2] = Selectivity index, ratio of CC50 for cytotoxicity against human Huh-7 cells to IC50 for antiplasmodial activity against hepatic stage luciferase-expressing Plasmodium berghei sporozoites infected in human Huh-7 cells; format: toxicity, cell-based; conditions: read-out: Ratio CC50/IC50
[3] = test system: Plasmodium berghei; experiment: (§1) Antiplasmodial activity against hepatic stage luciferase-expressing Plasmodium berghei sporozoites infected in human Huh-7 cells assessed as reduction in parasite burden preincubated for 1 hrs followed by infection and measured after 46 hrs by […]; format: functional, organism-based
[4] = test system: Plasmodium falciparum; experiment: Antiplasmodial activity against Plasmodium falciparum; format: functional, organism-based
[5] = test system: Plasmodium berghei; experiment: as §1, with “Potency index, ratio of monensin IC50 to test compound IC50 for antiplasmodial” for “Antiplasmodial”; format: functional; conditions: time 47 hrs

Which CC50 at 46 h [1] does the source give for `CC[C@@]1([C@@H]2O[C@@H]([C@H]3O[C@@](O)(CO)[C@H](C)C[C@@H]3C)C[C@@H]2C)CC[C@H]([C@]2(C)CC[C@]3(C[C@H](O)[C@@H](C)[C@@H]([C@@H](C)[C@@H](OC)[C@H](C)C(=O)OCc4ccccc4)O3)O2)O1` here?
Its CC50 at 46 h is 31300 nM.

What about the selectivity ratio [2] of the same molecule?
The selectivity ratio was 384.

And the IC50 [3]?
Its IC50 is 81.6 nM.

With `CC[C@@]1([C@@H]2O[C@@H]([C@H]3O[C@@](O)(CO)[C@H](C)C[C@@H]3C)C[C@@H]2C)CC[C@H]([C@]2(C)CC[C@]3(C[C@H](O)[C@@H](C)[C@@H]([C@@H](C)[C@@H](OC)[C@H](C)C(=O)O)O3)O2)O1` [MONENSIN] as the molecule, how does the CC50 at 46 h [1] read?
Its CC50 at 46 h is 17500 nM.

And the selectivity ratio [2]?
Its selectivity ratio is 3180.

And the IC50 [3]?
The IC50 was 5.5 nM.

What about the IC50 [4] of the same molecule?
Its IC50 is 2.46 nM.

With `CC[C@@]1([C@@H]2O[C@@H]([C@H]3O[C@@](O)(CO)[C@H](C)C[C@@H]3C)C[C@@H]2C)CC[C@H]([C@]2(C)CC[C@]3(C[C@H](O)[C@@H](C)[C@@H]([C@@H](C)[C@@H](OC)[C@H](C)C(=O)OCCCC[P+](c4ccccc4)(c4ccccc4)c4ccccc4)O3)O2)O1` as the molecule, how does the CC50 at 46 h [1] read?
The CC50 at 46 h was 5800 nM.

And the selectivity ratio [2]?
Its selectivity ratio is 9.3.

And the IC50 [3]?
Its IC50 is 623 nM.

With `CC[C@@]1([C@@H]2O[C@@H]([C@H]3O[C@@](O)(COS(=O)(=O)c4ccc(C)cc4)[C@H](C)C[C@@H]3C)C[C@@H]2C)CC[C@H]([C@]2(C)CC[C@]3(C[C@H](O)[C@@H](C)[C@@H]([C@@H](C)[C@@H](OC)[C@H](C)C(=O)O)O3)O2)O1` as the molecule, how does the IC50 [4] read?
The IC50 was 1.52 nM.

With `CC[C@@]1([C@@H]2O[C@@H]([C@H]3O[C@@]4(COC(=O)O4)[C@H](C)C[C@@H]3C)C[C@@H]2C)CC[C@H]([C@]2(C)CC[C@]3(C[C@H](O)[C@@H](C)[C@@H]([C@@H](C)[C@@H](OC)[C@H](C)C(=O)O)O3)O2)O1` as the molecule, how does the IC50 [4] read?
The IC50 was 1.08 nM.

What does the source list for `CC[C@@]1([C@@H]2O[C@@H]([C@H]3O[C@@](O)(CNC(=O)CCC[P+](c4ccccc4)(c4ccccc4)c4ccccc4)[C@H](C)C[C@@H]3C)C[C@@H]2C)CC[C@H]([C@]2(C)CC[C@]3(C[C@H](O)[C@@H](C)[C@@H]([C@@H](C)[C@@H](OC)[C@H](C)C(=O)O)O3)O2)O1`?
CC50 at 46 h [1]: 75300 nM; selectivity ratio [2]: 50.6; IC50 [3]: 1490 nM

Which CC50 at 46 h [1] does the source give for `CC[C@@]1([C@@H]2O[C@@H]([C@H]3O[C@@](O)(CNC(=O)Nc4ccccc4)[C@H](C)C[C@@H]3C)C[C@@H]2C)CC[C@H]([C@]2(C)CC[C@]3(C[C@H](O)[C@@H](C)[C@@H]([C@@H](C)[C@@H](OC)[C@H](C)C(=O)O)O3)O2)O1` here?
The CC50 at 46 h was 4200 nM.

And the selectivity ratio [2]?
The selectivity ratio was 1450.

What about the IC50 [3] of the same molecule?
Its IC50 is 2.9 nM.

Which CC50 at 46 h [1] does the source give for `CC[C@@]1([C@@H]2O[C@@H]([C@H]3O[C@@](O)(COC(=O)Nc4ccccc4)[C@H](C)C[C@@H]3C)C[C@@H]2C)CC[C@H]([C@]2(C)CC[C@]3(C[C@H](O)[C@@H](C)[C@@H]([C@@H](C)[C@@H](OC)[C@H](C)C(=O)O)O3)O2)O1` here?
Its CC50 at 46 h is 3100 nM.

What about the “Ratio IC50” value [5] of the same molecule?
The value was roughly 8.

What about the selectivity ratio [2] of the same molecule?
Its selectivity ratio is 4430.

And the IC50 [3]?
The IC50 was 0.7 nM.

With `COc1cc(NC(C)CCCN)c2ncccc2c1` (configuration not stated) [PRIMAQUINE] as the molecule, how does the CC50 at 46 h [1] read?
Its CC50 at 46 h is 139000 nM.

And the selectivity ratio [2]?
Its selectivity ratio is 16.4.

What does the source list for `CC[C@@]1([C@@H]2O[C@@H]([C@H]3O[C@@](O)(CNC(=O)c4ccccc4)[C@H](C)C[C@@H]3C)C[C@@H]2C)CC[C@H]([C@]2(C)CC[C@]3(C[C@H](O)[C@@H](C)[C@@H]([C@@H](C)[C@@H](OC)[C@H](C)C(=O)O)O3)O2)O1`?
CC50 at 46 h [1]: 8400 nM; selectivity ratio [2]: 1310; IC50 [3]: 6.4 nM

Source: ChEMBL document CHEMBL6182887, “Chemical modification of monensin as a source of potent antiplasmodial agents” (Bioorg Med Chem, 2025)
